This is an account of results in article PMC4215638, “J-147 a Novel Hydrazide Lead Compound to Treat Neurodegeneration: CeeTox™ Safety and Genotoxicity Analysis” (Journal of neurology & neurophysiology, 2013).

A short description of this series: Microsomal metabolic stability. Type of series: in vitro ADME. The conditions noted are these: 30 minutes at 37°C, rat microsomes. The procedure:
Metabolic stability was conducted using pooled microsomes from non-induced male Sprague-Dawley rats. J-147 was incubated for 30 minutes at 37°C at concentrations of 1 μM. Subsequent HPLC analysis using a Waters Alliance 2795 in combination with a Waters Quattro Premier mass spectrometer measured disappearance of the parent molecule. The compounds were run on a Waters X-BridgeC18 (186003021) 50 × 2.1 mm column with 3.5 micron particle packing at a flow rate of 1 ml/min and with the temperature maintained at 50°C. Solvent A was water with 0.1% formic acid. Solvent B was acetonitrile with 0.07% formic acid. The data for 3 replicates are expressed as percent of parent remaining.

In the case of `Cc1ncc2n1-c1ccc(Cl)cc1C(c1ccccc1F)=NC2` [Midazolam, reference compound], the “Metabolism Ranking” value (1 μM) is given as “High (<45=high)”. In addition, the share remaining at 0.5 h, 1 μM (male, Sprague-Dawley, pooled microsomes from non-induced rats, percent of parent remaining) fell in the range of 0 to 3%.
